Laboratory results published in a melting point compilation (Tetko et al.; mined from patent text by program, amines drawn as free bases though some values may be those of a salt).

Compared with `O=S(=O)(c1c(-c2cc(Cl)cc(Cl)c2)[nH]c2c(Cl)cc(Cl)cc12)C(F)(F)F`, `NC(=O)c1[nH]c2ccc(Cl)cc2c1S(=O)(=O)c1ccccc1Cl` is lower in melting point: 300 to 302 °C for the first, 267 °C for the second.

`CC12CCC3C4CCC(=O)C=C4CCC3C1CCC2=O` (stereo not given) and `CN1C(=O)CCC2(C)c3ccc(S(=O)(=O)c4ccccc4)cc3CCC12` (single isomer, unassigned; (+)) cannot be ordered by melting point: 163 to 169 °C for the first, 165 to 167 °C for the second.

Compared with `N#CCc1cccc2c(-c3ccc(C(F)(F)F)cc3)nccc12`, `O=C(Nc1cccc(C(F)(F)F)c1)c1cccnc1NCc1ccc(=O)[nH]c1` is higher in melting point: 122 to 123 °C for the first, 200 to 202 °C for the second.

First: CCSC1Oc2ccccc2C(=S)C1(C#N)C(N)=O (stereo not given)
Second: C[C@@H]1[C@H](c2ccccc2)OC(=O)N1C(=O)CCc1ccccc1
The melting point of the first is higher: 165 to 168 °C for the first, 99 to 100 °C for the second.

First: Clc1ncn(CCOc2ccc(Oc3ccccc3)cc2)c1Cl
Second: COc1cc(OCc2ccccc2)cc(Cl)c1Cl
The melting point of the first is higher: 89 to 91 °C for the first, 79 to 81 °C for the second.

First: COc1cc2cc(C(=O)O)[nH]c2c2c1OCCC2=O
Second: Nc1c(Br)cc(C(=O)CCC(=O)O)cc1Br
The melting point of the first is higher: 312 °C for the first, 200 to 202 °C for the second.

First: C=CCN1CCN(C(=O)Cn2sc3ccccc3c2=O)CC1
Second: O=C(Nc1cc(C2CC2)n[nH]1)c1ccccc1
The melting point of the first is lower: 119 to 120 °C for the first, 234 °C for the second.

Compared with `CCCCCCCCCCCOc1ccc(-c2ccc(OCC(C)OC(=O)CC(C)C)cc2)cc1` (stereo not given), `CCc1cnc(-n2cc(CCCOc3c(CC(=O)O)cccc3OC)c(C(C)C)n2)nc1` is higher in melting point: 65.4 to 66.5 °C for the first, 103 to 104 °C for the second.

Compared with `CCc1cc(C#N)ccc1Nc1c(N[C@H](C)C(C)(C)C)c(=O)c1=O`, `COc1cc(Nc2c(C#N)cnc3cc(-c4ccccc4CN4CCOCC4)ccc23)c(Cl)cc1Cl` is lower in melting point: 235 to 237 °C for the first, 107 to 109 °C for the second.

Compared with `COc1cc(-c2ncc(S(C)=O)cc2Cl)c(F)cc1Cl` (stereo not given), `S=C(NC(=S)c1c(Cl)cccc1Cl)Nc1ccc(Cl)c(Cl)c1` is higher in melting point: 117 to 118 °C for the first, 168 to 170 °C for the second.

Compared with `COC1=C(OC)C(=O)OC1=O`, `COC(=O)C1Oc2ccc(C3CCCCC3)cc2C(C)(c2ccccc2)O1` (stereo not given) is higher in melting point: 41 to 43 °C for the first, 107 °C for the second.

Compared with `O=C(N(Cc1cccs1)CC1CCCCC1)C12CC3CC(CC(C3)C1)C2`, `O=C(O)[C@@H]1C[C@@H](O)CN1C(=O)OCc1ccccc1` is lower in melting point: 112 to 116 °C for the first, 106 to 107 °C for the second.

First: CCN1CCC(n2nc(-c3c(-c4ccccc4)nn4ccccc34)ccc2=O)CC1
Second: CC(=O)Nc1ccc(-n2c(-c3ccccc3)cc3c2CCCC3)cc1C(=O)O
The melting point of the first is lower: 134 to 135 °C for the first, 192 to 194 °C for the second.

First: CC(C)(C(N)=O)/C(F)=C(/F)c1ccc(Cl)cc1
Second: O=C(O)Cc1cccc(C(=O)c2ccc(Cl)cc2)c1
The melting point of the first is lower: 99 °C for the first, 148 °C for the second.

First: COc1ccc(-n2nc(CCC#N)cc2-c2ccc(Cl)cc2)cc1
Second: Cn1cccc1-c1nc2cc(Cl)cc(CCc3ccccn3)c2o1
The melting point of the first is higher: 107 to 109 °C for the first, 100 to 101 °C for the second.

First: CN(Cc1ccc(C2=NCCN2C(=O)OC(C)(C)C)cc1)C(=O)OCc1ccccc1
Second: NS(=O)(=O)C1=CCC(n2nc(C(F)(F)F)c3ccc4ccccc4c32)C=C1 (stereo not given)
The melting point of the first is lower: 124 °C for the first, 257 to 258 °C for the second.

First: OCC1OC(n2c(Cl)nc3cc(Br)ccc32)C(O)C1O (stereo not given)
Second: O=C(NCc1ccc(Cl)cc1)c1nnc2ccc(CO)cc2c1O
The melting point of the first is lower: 154 to 155 °C for the first, 296 to 298 °C for the second.

Compared with `CCCSc1nc(N)nc2c1ncn2C1C=CC(CO)C1` (stereo not given), `O=C(NC1CN2CCC1CC2)c1cccc2oc(-c3ccc(F)cc3)nc12` (stereo not given) is higher in melting point: 128 to 130 °C for the first, 208 to 209 °C for the second.

First: O=P(O)(c1ccc(S(=O)(=O)c2ccccc2)cc1)c1ccc(S(=O)(=O)c2ccccc2)cc1
Second: O=c1c2ccccc2oc2cc(OCC3CO3)cc(O)c12 (stereo not given)
The melting point of the first is lower: 155 to 165 °C for the first, 197 °C for the second.

Compared with `Nc1cc(C2=NOC(c3cc(Cl)cc(Cl)c3)(C(F)(F)F)C2)ccc1-n1cncn1` (stereo not given), `O=C(O)c1ccc2c(c1)C=CC(=CCl)CO2` is higher in melting point: 244 to 246 °C for the first, over 260 °C for the second.
